Experimental data as given in patent US20090105349A1, “ANDROGEN MODULATORS” (WARNER-LAMBERT COMPANY LLC, priority 2004, published 2009).
Changes are numbered by the printed parent chain. Read-outs that look alike come from different tables or passages of the source.

Columns and labels:
[1] = target: T1, hAR (human androgen receptor) (Homo sapiens, UniProt P10275); test: Competitive hAR binding assay with 3H-DHT tracer
T1 construct: made in house; host or cells: baculovirus/Sf9 insect cells (crude extract)
T1 sequence (P10275 1-920): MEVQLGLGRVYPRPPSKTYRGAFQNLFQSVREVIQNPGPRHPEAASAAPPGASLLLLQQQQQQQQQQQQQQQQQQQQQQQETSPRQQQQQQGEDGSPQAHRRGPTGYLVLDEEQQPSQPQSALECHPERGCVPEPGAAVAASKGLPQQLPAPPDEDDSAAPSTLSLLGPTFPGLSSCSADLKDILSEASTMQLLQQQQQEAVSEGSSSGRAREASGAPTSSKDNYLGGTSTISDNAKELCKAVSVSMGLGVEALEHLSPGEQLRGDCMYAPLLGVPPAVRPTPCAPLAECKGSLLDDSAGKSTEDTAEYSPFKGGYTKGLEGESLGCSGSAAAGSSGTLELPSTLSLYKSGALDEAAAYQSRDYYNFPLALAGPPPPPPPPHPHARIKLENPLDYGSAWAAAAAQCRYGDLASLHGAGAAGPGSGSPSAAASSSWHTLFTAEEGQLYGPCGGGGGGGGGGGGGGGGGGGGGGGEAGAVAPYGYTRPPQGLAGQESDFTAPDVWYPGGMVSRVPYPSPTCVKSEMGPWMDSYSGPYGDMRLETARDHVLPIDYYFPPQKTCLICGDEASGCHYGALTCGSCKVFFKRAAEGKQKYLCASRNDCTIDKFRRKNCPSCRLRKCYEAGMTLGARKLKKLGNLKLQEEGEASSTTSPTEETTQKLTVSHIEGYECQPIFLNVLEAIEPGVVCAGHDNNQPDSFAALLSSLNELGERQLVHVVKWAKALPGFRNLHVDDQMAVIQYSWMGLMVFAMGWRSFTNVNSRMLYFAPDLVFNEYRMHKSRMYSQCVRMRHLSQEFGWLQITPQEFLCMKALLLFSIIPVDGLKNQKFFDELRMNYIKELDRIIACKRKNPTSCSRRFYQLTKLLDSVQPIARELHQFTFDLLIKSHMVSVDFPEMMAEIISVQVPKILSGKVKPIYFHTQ
Protocol: The description below describes how the assay was carried out.
Competitive binding analysis was performed on baculovirus/Sf9 generated hAR extracts in the presence or absence of different concentrations of test agent and a fixed concentration of ^3H-dihydrotestosterone (3H-DHT) as tracer. […] Subsequently, the binding reactions are washed three times to completely remove excess unbound ^3H-DHT. hAR bound ^3H-DHT levels are determined in the presence of compounds (i.e. competitive binding) and compared to levels bound when no competitor is present (i.e. maximum binding). Compound binding affinity to the hAR is expressed as the concentration of compound at which one half of the maximum binding is inhibited.

[2] = target: T2, androgen receptor in MDA-MB453-MMTV clone 54-19 cells (Homo sapiens, UniProt P10275); test: AR antagonist cell assay (MMTV-luciferase reporter); format: cell-based
T2 sequence (P10275 1-920 Q868H): T1 sequence (P10275 1-920) with Q868H
Protocol: The compounds ability to antagonize the effects of androgen on the androgen receptor were determined in a whole cell assay as described immediately below.
This cell line is a stable transfected cell line with MDA-MB453 cell background (a human breast tumor cell line expressing androgen receptor). A MMTV minimal promoter containing ARE was first cloned in front of a firefly luciferase reporter gene. Then the cascade was cloned into transfection vector pUV120puro. […] Puromycin resistant stable cell line was selected.
Plating medium: DMEM (phenol red free), 10% charcoal treated HyClone serum, 1% L-glutamine
Assay medium: DMEM (phenol red free), 1% charcoal treated HyClone serum, 1% L-glutamine, and 1% penicillin/streptomycin
Assay procedure: • 1. Cells are maintained in culture medium, splitting cells when they reach 80-90% confluence • 2. To test compounds, 10,000 cells/well are plated to opaque 96 cell culture plate in 100 ul/well plating medium, culture for overnight at 37° C. in cell culture incubator • 3. […] Add 10 ul/well freshly prepared DHT (final concentration at […]) to each well, incubate at 37° C. for 17 hr (overnight) • 5.
The results are reported as the mean of multiple tests as described below (the numbers of tests are indicated in the footnote). N.D. denotes that the compound was not tested.

[3] = baculovirus/Sf9 hAR extract, 1 nM 3H-DHT, one hour at 4° C, mean of multiple tests, read-out: AR Binding IC50
[4] = MDA-MB453-MMTV clone 54-19, inhibition of DHT induced luciferase, 17 hr; mean of multiple tests; read-out: AR Cell IC50
[5] = read-out: AR Cell IC50; MDA-MB453-MMTV clone 54-19, inhibition of DHT induced luciferase, 17 hr; mean of multiple tests

Structure (SMILES) | IC50 [1, 3] | IC50 [2, 4] | IC50 [2, 5] | IC50 [1]
N#Cc1ccc(Oc2ccc(F)cc2)cc1Cl [Example 52, 2-Chloro-4-(4-fluoro-phenoxy)-benzonitrile] | 0.152 µM | 0.261 µM |  | 
Cc1ccc(C(C)C)cc1Oc1ccc(C#N)c(Cl)c1 [Example 53, 2-Chloro-4-(5-isopropyl-2-methyl-phenoxy)-benzonitrile] | 0.192 µM | 0.621 µM |  | 
COc1cccc(Oc2ccc(C#N)c(Cl)c2)c1OC [Example 54, 2-Chloro-4-(2,3-dimethoxy-phenoxy)-benzonitrile] | 0.157 µM |  | 0.026 µM | 
COc1cc(F)ccc1Oc1ccc(C#N)c(Cl)c1 [Example 56, 2-Chloro-4-(4-fluoro-2-methoxy-phenoxy)-benzonitrile] |  |  | 0.011 µM | 0.006 µM
CCOc1cc(C)ccc1Oc1ccc(C#N)c(Cl)c1 [Example 57, 2-Chloro-4-(2-ethoxy-4-methyl-phenoxy)-benzonitrile] |  | > 1 µM |  | 0.007 µM
CSc1ccc(Oc2ccc(C#N)c(Cl)c2)c(C)c1 [Example 59, 2-Chloro-4-(2-methyl-4-methylsulfanyl-phenoxy)-benzonitrile] | 0.268 µM | 0.175 µM |  | 
Cc1cc(F)ccc1Oc1ccc(C#N)c(Cl)c1 [Example 60, 2-Chloro-4-(4-fluoro-2-methyl-phenoxy)-benzonitrile] |  |  | 0.072 µM | 0.048 µM
CCCC(=O)Nc1ccc(Oc2ccc(C#N)c(Cl)c2)cc1 [Example 61, N-[4-(3-Chloro-4-cyano-phenoxy)-phenyl]-butyramide] | 0.163 µM | 0.535 µM |  | 
CC(C)Oc1ccccc1Oc1ccc(C#N)c(Cl)c1 [Example 63, 2-Chloro-4-(2-isopropoxy-phenoxy)-benzonitrile] |  |  | 0.004 µM | 0.07 µM
N#Cc1ccc(Oc2ccccc2C(F)(F)F)cc1Cl [Example 64, 4-(2-Trifluoromethyl-phenoxy)-2-chloro-benzonitrile] |  | 0.842 µM |  | 0.034 µM
N#Cc1ccc(Oc2ccccc2C#N)cc1Cl [Example 65, 2-Chloro-(2-cyano-phenoxy)-benzonitrile] |  |  | 0.00032 µM | 0.014 µM
N#Cc1ccc(Oc2ccccc2)cc1Cl [Example 66, 2-Chloro-4-phenoxy-benzonitrile] | 0.147 µM | 0.333 µM |  | 
N#Cc1ccc(Oc2ccc(C#N)c(Cl)c2)cc1 [Example 67, 2-Chloro-(4-cyano-phenoxy)-benzonitrile] | 0.23 µM | 0.34 µM |  | 
Cc1ccc(C)c(Oc2ccc(C#N)c(Cl)c2)c1 [Example 68, 2-Chloro-4-(2,5-dimethyl-phenoxy)-benzonitrile] |  | > 1 µM |  | 0.069 µM
N#Cc1ccc(Oc2ccccc2-c2ccccc2)cc1Cl [Example 69, 4-(Biphenyl-2-yloxy)-2-chloro-benzonitrile] | 0.159 µM | > 1 µM |  | 
N#Cc1ccc(Oc2ccc(O)cc2)cc1C(F)(F)F [Example 80, 4-(4-Hydroxy-phenoxy)-2-trifluoromethyl-benzonitrile] | 0.207 µM |  | 0.062 µM | 
N#Cc1ccc(Oc2cccc(O)c2)cc1C(F)(F)F [Example 82, 4-(3-Hydroxy-phenoxy)-2-trifluoromethyl-benzonitrile] |  |  | 0.061 µM | 0.085 µM
CC(=O)c1c(O)cccc1Oc1ccc(C#N)c(C(F)(F)F)c1 [Example 85, 4-(2-Acetyl-3-hydroxy-phenoxy)-2-trifluoromethyl-benzonitrile] | 0.111 µM |  | 0.004 µM | 
CC(=O)c1ccccc1Oc1ccc(C#N)c(C(F)(F)F)c1 [Example 88, 4-(2-Acetyl-phenoxy)-2-trifluoromethyl-benzonitrile] | 0.276 µM | 0.123 µM |  | 
COc1ccc(Oc2ccc(C#N)c(C(F)(F)F)c2)c(C(C)=O)c1 [Example 90, 4-(2-Acetyl-4-methoxy-phenoxy)-2-trifluoromethyl-benzonitrile] | 0.204 µM | 0.477 µM |  | 
N#Cc1ccc(Oc2cccc3ccccc23)cc1C(F)(F)F [Example 97, 4-(Naphthalen-1-yloxy)-2-trifluoromethyl-benzonitrile] |  | 0.554 µM |  | 0.1 µM
